The record followed here is patent US20060025394A1, “Estradiol-related compounds and methods of use as anti-tumor agents” (priority 2003, published 2006).

The test system of one series is MCF-7. Description: Cytotoxicity testing (Example 7), MTS, MCF-7. Particulars: Table 3, five days, 1 mM of each compound, defined media. Type of series: cell-based. How it is done: (§1) Cytotoxicity Studies were done in DU-145 and MCF-7 Cells. […] We set out to test the efficacy of these compounds based on known affinities for ER-α previously reported. Cells were treated for five days with 1 mM of each compound in a defined media. Cell number was estimated by the MTS method. Similar studies were carried out in the MCF-7 cell line known to express both ER-α and -β, and display proliferative properties in the presence of classic estrogens.

A further series has as its system NCR nude mice. Particulars: 5 to 40 mg/kg/day bolus IM injection, 40-day period. How it is done: Doses included 5 to 40 mg/kg/day bolus IM injection. Toxicity effects were gauged based on changes in animal weight and gross analysis of specific organs including liver, lung, prostate, brain, spleen, heart, and kidney, collected, and fixed in paraffin sections.
A further series has as its system DU-145. Description: Cytotoxicity testing (Example 7), MTS, DU-145. Type of series: cell-based. Particulars: Table 3; five days, 1 mM of each compound, defined media, MTS. How it is done: as §1
Another series has as its system DU145. As to the kind of experiment: MTS cell viability assay in DU145. Type of series: cell-based. How it is done:
(§2) DU145, LNCaP, PC3, and MCF-7 cells were obtained from the American Type Culture Collection (Manassas, Va.). DU145, PC3, and MCF-7 cells were maintained in Dulbecco's modified Eagle's medium/F-12 supplemented with 5% heat inactivated Fetal Calf Serum and Penicillin/Streptomycin (Invitrogen Life Technologies, Carlsbad, Calif.). LNCaP cells were maintained in RPMI 1640 medium supplemented in the same fashion. Cells were cultured in 75 cm^2 flasks (Falcon, BD Biosciences, Bedford, Mass.) at 37° C. and 5% CO2. For the MTS assay (Example 3), five thousand cells were plated in each well of a 24 well plate (Falcon), were allowed to attach for a 48-hour period in the media described, and changed to a defined medium, (DMEM/F-12 or RPMI1640) supplemented with insulin (BD Biosciences). A 1000× solution of the compound of interest solubilized in DMSO (Sigma, Saint Louis, Mo.) was diluted in the defined media just prior to starting each experiment, and media was refreshed every 48 to 72 hours throughout the experiments.
. Upon completing five days of treatment, the medium in each well was exchanged for 400 μL of an MTS solution (3-(4,5-dimethylthiazol-2-yl)-5-(3-carboxymethoxyphenyl)-2-(4-sulfophenyl)-2H-tetrazolium, inner salt; O'Toole SA, 2003, Cancer Detect Prev., 2003;27(1):47-54) spiked into media as per the manufacture's instructions (Promega, Madison, Wis.) and incubated for 2 hours at 37° C. before reading the absorbance on the μQuant UV/VIS plate reader, in conjunction with KCjunior Software (Bio-Tek Instruments, Winooski, Vt.) set at 490 nm. All experiments were carried out in quadruplicate, control wells were treated with the carrier DMSO. E2, which is estradiol-17β (Steraloids®, Newport, R.I.) and resveratrol (Sigma) were used as controls. […]

The test system of series [1] is DU145 cells. Description: Annexin-V-FITC/PI apoptosis assay. The format is cell-based. Particulars: 16 nM, 4th and 5th days. How it is done:
Apoptosis was assessed with the annexin-V-FITC apoptosis detection kit (Oncogene Research Products, Boston, Mass.) as per the manufacturer's instructions with E2 and camptothecin (Calbiochem, San Diego, Calif.) as negative and positive controls respectively. Briefly, cells were lifted at the appropriate time points as described above and pelleted. Cells were then resuspended in ice cold binding buffer, and doubly stained with Annexin-V-fluorescein isothiocyanate and propidium iodide (PI) and analyzed within two hours on the FACScan™ flow cytometer (Becton Dickinson) and the Cell Cycle Multi-Cycle system (Phoenix Flow System).

In series [2] the test system is DU145 cells. Description: ER competition study, MTS assay with E2 as the competitor. Particulars: DU145, co- or 1 hour pre-treatment with 1 μM E2.
The test system of the next series is PC3. Description: MTS cell viability assay in PC3. The format is cell-based. How it is done:
as §2
Cell viability assays were carried out with five logs of concentration between 0.1 nM and 1 μM for APVE2, including controls in three prostate cancer cell lines (DU145, LNCaP, and PC3, and in a breast cancer cell line (MCF-7). Upon completing five days of treatment, the medium in each well was exchanged for 400 μL of an MTS solution (3-(4,5-dimethylthiazol-2-yl)-5-(3-carboxymethoxyphenyl)-2-(4-sulfophenyl)-2H-tetrazolium, inner salt; O'Toole SA, 2003, Cancer Detect Prev., 2003;27(1):47-54) spiked into media as per the manufacture's instructions (Promega, Madison, Wis.) and incubated for 2 hours at 37° C. before reading the absorbance on the μQuant UV/VIS plate reader, in conjunction with KCjunior Software (Bio-Tek Instruments, Winooski, Vt.) set at 490 nm. All experiments were carried out in quadruplicate, control wells were treated with the carrier DMSO. E2, which is estradiol-17β (Steraloids®, Newport, R.I.) and resveratrol (Sigma) were used as controls. […] EC50 values were calculated with GraphPad Prism software (GraphPad Software Inc., San Diego, Calif.).

Structures are written as SMILES. pEC50: −log10 of the molar value. Entries after “also recorded” stand apart in the source; their conditions may differ.

Consider `C[C@]12CC[C@@H]3c4ccc(O)cc4CC[C@H]3[C@@H]1CC[C@@]2(O)/C=C\c1ccc(N)cc1` [APVE2, 17α-20Z-21-[(4-amino)phenyl]-19-norpregna-1,3,5(10),20-tetraene-3,17β-diol], for which the “MCF-7 % Cell#” value in the series with MCF-7 is on record as 25%. Besides, the “general toxicity (animal weight, gross analysis of organs)” value in the series with NCR nude mice was “No apparent detrimental effects”. Further, in the series on DU-145, the “DU145 % Cell#” value is 10%. In addition, the “decrease in cell number” value in the series on DU145 (DU145, 5 days of treatment at 1 μM) was 92±0.9%; in the series on PC3 (PC3, 5 days of treatment at 1 μM), 81±0.8%. Moreover, the negative-log EC50 (pEC50) was 7.80 in the series with DU145 (Homo sapiens, DU-145, 120 h, read-out: EC50 (cell death, MTS)) and 8.57 in the series with PC3 (Homo sapiens, PC-3, 120 h, PC3, five day treatment, read-out: EC50 (cell death, MTS)). For the same compound, the “cells staining heavily with both dyes (late stage apoptosis)” value in the series on DU145 cells [1] was “approximately 76%”. In addition, the “reversal of cytotoxicity of 16 nM APVE2 by E2” value in the series on DU145 cells [2] is listed as “not effected; also recorded: not reversed”. Moreover, in the series with PC3 (PC3, 1 nM), the “increase in cell proliferation over non-treated controls” value turned out to be 20%.
